Results as given in patent US8809010B2, “Method for prophylactic treatment of alzheimer's disease using inhibitors of glutaminyl cyclase and glutamate cyclases” (Probiodrug AG, priority 2003, dated 2014).

Columns and labels:
[1] = Nonenzymatic pGlu-formation at pH 6.0 followed for 4 weeks; conditions: pH 6.0, 4 weeks
human QC = target: T1, human QC (Homo sapiens, UniProt Q16769); test: Qualitative substrate conversion (MALDI-TOF / fluorometric); type: biochemical
T1 construct: The cDNA of the mature QC starting with codon 38 was fused in frame with the plasmid encoded 6× histidine tag; 6xHis; made in house; host or cells: Pichia pastoris X33 (pPICZαB, secreted); also E. coli M15 (pQE-31)
T1 sequence (Q16769 29-361): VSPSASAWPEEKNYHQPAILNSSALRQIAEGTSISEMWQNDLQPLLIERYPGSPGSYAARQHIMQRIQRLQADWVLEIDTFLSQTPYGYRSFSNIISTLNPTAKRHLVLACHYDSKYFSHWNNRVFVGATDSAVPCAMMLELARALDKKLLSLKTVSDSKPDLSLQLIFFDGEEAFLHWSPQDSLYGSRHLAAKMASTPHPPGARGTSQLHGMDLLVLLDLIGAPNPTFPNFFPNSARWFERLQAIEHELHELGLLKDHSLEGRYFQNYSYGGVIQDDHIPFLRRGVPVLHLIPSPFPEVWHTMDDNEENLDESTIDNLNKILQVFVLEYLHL
Method: (§1) Matrix-assisted laser desorption/ionization mass spectrometry was carried out using the Hewlett-Packard G2025 LD-TOF System with a linear time of flight analyzer. […] Samples (5 μl) were mixed with equal volumes of the matrix solution. For matrix solution we used DHAP/DAHC, prepared by solving 30 mg 2′,6′-dihydroxyacetophenone (Aldrich) and 44 mg diammonium hydrogen citrate (Fluka) in 1 ml acetonitrile/0.1% TFA in water (1/1, v/v). A small volume (≈1 μl) of the matrix-analyte-mixture was transferred to a probe tip and immediately evaporated in a vacuum chamber (Hewlett-Packard G2024A sample prep accessory) to ensure rapid and homogeneous sample crystallization.
In order to further investigate the specificity and selectivity of the QCs, peptides were synthesized comprising either a modified N-terminal glutaminyl residue or a modified amino acid in the second position. […] Due to the cyclization of the glutaminyl residue or its analog, respectively, a mass difference of the substrate and the product of catalysis is detected. In cases of ammonia liberation of one mole per mole of substrate, the conversion was also analyzed quantitatively using the spectrophotometric assay.

THP-1 monocytes = test: TransWell chemotaxis assay; type: cell-based, human
Method: The chemotaxis assay was performed using 24 well TransWell plates with a pore size of 5 μm (Corning). Media, containing human MCP-1 variants expressed in HEK293, were used as chemoattractant. To this avail, 600 μl of the culture media of N-terminal human MCP-1 variants was applied directly or in dilutions 1:3, 1:10 and 1:30 in RPMI1640 to the lower chamber of the TransWell plate. Furthermore, undiluted media of HEK293 cells transfected with vector control were applied as negative control to the lower chamber. THP-1 cells were harvested and resuspended in RPMI1640 in a concentration of 1*10^6 cells/100 μl and applied in 100 μl aliquots to the upper chamber. Cells were allowed to migrate towards the chemoattractant for 2 h at 37° C. Subsequently, cells from the upper chamber were discarded and the lower chamber was mixed with 70 mM EDTA in PBS and incubated for 15 min at 37° C. to release cells attached to the membrane. Afterwards, cells migrated to the lower chamber were counted using a cell counter system (Schärfe System). The chemotactic index was calculated by dividing cells migrated to the stimulus from cells migrated to the negative control.

HEK293 cells = test: Aβ in conditioned medium after transient APP expression, BACE I inhibition, ELISA; type: cell-based, human
Method: (§2) The constructs are depicted in FIG. 33. The APP-encoding plasmids differed with respect to the sequence surrounding the β-secretase cleavage site, i.e. either carried the swedish mutation (KM595/596NL) or the wild-type sequence (K595M596) at the β-secretase-cleavage site. Furthermore, the constructs encoded either the London (V642I) or wild-type sequence (V642) near the γ-secretase cleavage site. The swedish mutation leads to an elevated generation of Aβ due to enhanced cleavage by the β-secretase BACE I. The London mutation mediates enhanced formation of Aβ42 peptides compared to the wild-type sequence without affecting the total Aβ generation.
(§3) In order to substantiate the role of these newly discovered enzyme activity generating the molecular precursor of pGlu-Aβ peptides, inhibitors of the known β-secretase BACE I were employed in experiments based on transient expression of the plasmid constructs outlined in FIG. 33. Similar to the observations with the APP(N3Q) constructs, N-terminally truncated peptides were generated mainly after APP-WT and APP-London expression.
(§4) Aβ(x-40), Aβ(x-42) and Aβ (N3pE-42)-specific sandwich ELISAs (all from IBL, Hamburg) were performed according to the manufacturer's manual. […] After applying the stop solution the absorption at 450 nm was measured using a microplate reader (TECAN Sunrise). […]

LNZ-308 cells = test: as above; type: cell-based
Method: as §2, §3, §4

[2] = system: pGlu-Aβ(3-42) formation in HEK293 and β-TC3 cells; test: pGlu-Aβ formation in cell culture (APP or mTRH-Aβ constructs), ELISA of medium; type: cell-based
Method: Aβ(x-42) shall here relate to all N-terminal Aβ or truncated Aβ forms.
In the accompanying approach, plasmids encoding variants of human APP were transfected into HEK293 cells (FIG. 24-2). The processing by β- and γ-secretase yields high amounts of Aβ(3-40/42), which can be detected in the culture medium.
For analysis of Aβ in case of the cell culture studies, conditioned medium was diluted using EIA buffer (IBL, Hamburg) as before and diluted samples were subjected to ELISA analysis.

[3] = system: human MCP-1 concentration, HEK293 cells; test: Expression of human MCP-1 in HEK293 cells, MCP-1 ELISA of supernatant; type: cell-based; conditions: 10 μM inhibitor
Method: For expression of N-terminal variants of human MCP-1, HEK293 cells were cultured in collagen I coated 6-well dishes and grown until 80% confluency, transfected using Lipofectamin2000 (Invitrogen) according to manufacturer's manual and incubated in the transfection solution for 5 hours. Afterwards, cells were allowed to recover in normal growth media over night. The next day, cells were incubated another 24 h in growth media. When application of QC specific inhibitor […] was intended, cells were incubated for 24 h in absence or presence of 10 μM […]. […] Furthermore, an aliquot of cell culture supernatant was stored at −80° C. for quantification of human MCP-1 concentration using human MCP-1-ELISA (Pierce).

Plasma half-life = type: in vivo; conditions: rat
[4] = system: pGlu-Aβ(3-40) formation in rat cortex; test: Rat model, intracortical injection of Aβ peptides (traumatic brain injury), ELISA and immunohistochemistry; type: in vivo
Method: Aβ(x-40), Aβ(x-42) and Aβ (N3pE-42)-specific sandwich ELISAs (all from IBL, Hamburg) were performed according to the manufacturer's manual. Briefly, samples were diluted according to the expected concentration in the brain parts and applied onto a plate precoated with an antibody specific for the respective C-terminus. The samples were incubated overnight. The next day, the plate was washed 8 times and incubated for 1 h with a horse radish peroxidase conjugated detection antibody afterwards. Following this incubation the plate was washed 10 times and then developed with chromogen (TMB) for 30 min. After applying the stop solution the absorption at 450 nm was measured using a microplate reader (TECAN Sunrise). For preparation of standard curves the respective synthetic peptides supplied with the ELISA kits were used.
Samples for ELISA were prepared from 8 animals per group (total 32 animals). After removal of the brain, the tissue were flushed shortly with ice cold saline and placed shortly on filter paper. The cerebellum were prepared from each brain and stored separately. The brains were weighed and frozen in liquid nitrogen in 2 ml Cryo-tubes and stored at −80° C. until analysis.
For sequential separation of Aβ the following procedures were used: […]

[5] = system: cuffed femoral artery: vascular remodeling, monocyte adhesion, MCP-1 expression; test: Cuff-induced accelerated atherosclerosis in ApoE3*Leiden mice; type: in vivo; set-up: reduction of percentage of lumen stenosis / reduction of the area of neointima formation / reduction of total adhering cells / reduction of adhering monocytes / reduction of MCP-1 expression, absolute area, media / reduction of MCP-1 expression, absolute area, intima: concentration or dose not given beside the values
Method: After 3 weeks the mice underwent surgical non-constricting cuff placement (day 0) and were divided into 2 groups, matched for plasma cholesterol levels.
At the time of surgery, mice were anaesthetized with an intraperitoneal injection of 5 mg/kg Dormicum, 0.5 mg/kg Domitor and 0.05 mg/kg Fentanyl. This cocktail gives complete narcosis for at least one hour and can be quickly antagonized with Antisedan 2.5 mg/kg and Anexate 0.5 mg/kg.
A longitudinal 1 cm incision is made in the internal side of the leg and the femoral artery is dissected for 3 mm length from the femoral nerve and femoral vein. The femoral artery is looped with a ligature and a non-constrictive fine bore polyethylene tubing (0.4 mm inner diameter, 0.8 mm outer diameter, length 2 mm) is longitudinally opened and sleeved loosely around the femoral artery. The cuff is closed up with two ligature knots. The skin is closed with a continued suture.
For histological analysis, animals were sacrificed either 2 days or 14 days after cuff placement. […] After perfusion, a longitudinal 2 cm incision was made in the internal side of the leg and the cuffed femoral artery was harvested as a whole and fixed overnight in 4% formaldehyde and processed to paraffin.
Adhesion of leukocytes in general and monocytes/macrophages in particular to the activated endothelium of the cuffed vessel wall was analyzed by microscopic analysis of cross sections harvested 2 days after cuff placement. The number of adhering and/or infiltrating leukocytes in general, identified as adhering cells at the luminal side of the vessel segment, and monocytes/macrophages in particular was counted and illustrated as cells per cross-section or as defined areas per cross section. Monocytes were identified by specific immunohistochemical staining by AIA31240 antibody, recognizing monocytes and macrophages.
Vessel wall remodeling accelerated atherosclerosis and neoinitima formation were analyzed morphometrically in all mice sacrificed after 14 days. A full comparison between the two groups was performed for all relevant vessel wall parameters (neointima formation, vascular circumference (i.e. outward remodelling), media thickness, lumen stenosis). Accelerated atherosclerosis was analyzed by immunohistochemical staining for macrophages and foam cells in the lesion area by AIA31240 antibody.

[6] = Aβ aggregation assay with flow cytometry; type: physicochemical; conditions: 10 μM peptide, up to 24 h
Method: At different times, samples were removed, diluted to 10 nM (based on the initial concentration of the monomer), and analyzed by flow cytometry.
Seedless Aβ peptides were diluted to 10 μM (final total peptide concentration) into 50 mM sodium acetate, pH 5.5 containing 2 mM DTT and 100 mM NaCl and incubated at 37° C. without shaking. For fibril formation analysis, the peptides were either used as a mixture of unlabeled peptide (80%) and the respective fluorescence labeled peptide (20%) or as unlabeled peptides alone. […] In order to characterize the progress of the reaction, aliquots were removed at the indicated times, diluted to 10 nM into PBS-T (0.05% Tween-20) and analyzed. For reactions containing unlabeled peptides only, prior to flow cytometry aliquots were diluted to 5 nM into PBS-T and incubated with fluorescence labeled antibody 4G8 (Chemicon, Tececula, Calif.) at 1 nM for 1 h at 4° C.
To ensure identical conditions for all measurements, all samples were measured in TruCount Tubes (BD Biosciences) and analysis was stopped after 20,000 beads were counted. Counts were transferred into ANSMS for evaluation (Alzheimer normalized specific measurement signal: event counts from flow cytometry analysis normalized to the size of the particles, i.e. to a mean size of FS Log=250).

[7] = Thioflavin T assay of fibril formation; type: physicochemical
Method: The observations for the Aβ42 peptides were substantiated using a common ThT fluorescence assay (FIG. 24-6D). […] The typical lag phase, i.e. the thermodynamically unfavorable period, in which the seeds are generated, is displaced by a hyperbolic initial phase. Thus, there is a much higher tendency to formation of ThT positive initial aggregates.
Fibril formation analysis using Thioflavin T fluorescence was performed essentially as described previously (Chalifour R J, McLaughlin R W, Lavoie L, Morissette C, Tremblay N, Boule M, Sarazin P, Stea D, Lacombe D, Tremblay P, Gervais F 2003 Stereoselective interactions of peptide inhibitors with the beta-amyloid peptide. J Biol Chem 278:34874-34881). The DMSO stock solution was diluted in PBS to a final concentration of 50 μM of Aβ peptide. The peptide solution was added to an equal volume of ThT solution (20 μM ThT, 0.3 M NaCl, 0.01% NaN3) and applied to a 96-well microplate. Routinely, assays of each peptide were performed in triplicate on one plate. The plate was covered with an adhesive film (EXCEL Scientific, Wrightwood, Calif., USA) and incubated in the plate reader at 30° C. for up to 250 h. The fluorescence was measured every 4 h (excitation 440 nm, emission […]).

DP IV (porcine kidney) = target: T2, DP IV (porcine kidney) (Sus scrofa, UniProt P22411); test: DP IV cleavage of [Gln3]Aβ1-11a, MALDI-TOF; type: biochemical
T2 construct: Measurements were carried out using purified DP IV (porcine kidney); from tissue; host or cells: porcine kidney
T2 sequence (P22411 whole entry): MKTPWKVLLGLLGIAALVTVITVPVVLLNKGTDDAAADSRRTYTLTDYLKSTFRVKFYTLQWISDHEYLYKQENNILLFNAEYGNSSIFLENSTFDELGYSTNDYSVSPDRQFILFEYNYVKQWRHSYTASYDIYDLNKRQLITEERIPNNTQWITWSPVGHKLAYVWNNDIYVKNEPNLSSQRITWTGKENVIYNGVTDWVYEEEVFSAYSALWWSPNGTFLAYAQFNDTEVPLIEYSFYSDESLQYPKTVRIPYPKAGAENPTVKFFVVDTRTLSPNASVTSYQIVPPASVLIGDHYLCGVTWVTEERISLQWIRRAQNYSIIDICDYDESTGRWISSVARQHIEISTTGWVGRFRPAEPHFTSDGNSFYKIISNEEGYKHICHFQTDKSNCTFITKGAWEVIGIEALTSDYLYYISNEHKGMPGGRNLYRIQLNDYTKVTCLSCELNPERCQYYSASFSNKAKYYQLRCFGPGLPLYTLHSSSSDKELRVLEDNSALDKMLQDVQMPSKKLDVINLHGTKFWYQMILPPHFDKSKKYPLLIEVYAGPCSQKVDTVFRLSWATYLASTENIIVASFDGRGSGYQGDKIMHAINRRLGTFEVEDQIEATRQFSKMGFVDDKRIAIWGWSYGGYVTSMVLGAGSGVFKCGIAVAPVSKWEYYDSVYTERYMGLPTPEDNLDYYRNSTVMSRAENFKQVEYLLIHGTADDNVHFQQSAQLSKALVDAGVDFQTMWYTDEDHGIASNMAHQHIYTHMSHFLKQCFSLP
Method: as §1

[8] = system: QC in porcine pituitary homogenate; test: Formation of [pGlu3]Aβ3-11a in porcine pituitary homogenate, MALDI-TOF; type: biochemical; conditions: pituitary homogenate with added DPIV from porcine kidney
Method: as §1

physchem = conditions: pKa of the substrate amino group, determined by titration
Method: The ionic strength was adjusted to 0.05 M by addition of NaCl. The rate profiles were evaluated by fitting to a model that is based on dissociating groups.
For both determinations, a three-component buffer system was applied consisting of 0.05 M acetic acid, 0.05 M pyrophosphoric acid and 0.05 M Tricine. All buffers were adjusted to equal conductivity by addition of NaCl, in order to avoid differences in ionic strength. […] All determinations were carried out at 30° C.

Fc1ccc(NC(=S)NCCCn2ccnc2)cc1
melting point: 147 to 148 °C

N[C@@H](CCC(=O)O)C(=O)Nc1ccc2ccccc2c1 [H-Glu-βNA]
first-order rate constant of nonenzymatic pGlu-formation [1]: ≤ 1.0*10^−9 s^−1
conversion by human QC (human QC): None of these compounds were converted

MCP-1 (WT): human MCP-1(1-76) expressed in HEK293 cells
chemotaxis of THP-1 cells (THP-1 monocytes; supernatant of transfected HEK293 cells): chemotactic response

C[C@@H](NC(=O)c1cc(C(=O)N[C@@H](Cc2ccccc2)[C@H](O)CNC2CC2)cc(N(C)S(C)(=O)=O)c1)c1ccccc1 [BACE IV]
Aβ(1-40) and Aβ(1-42) (HEK293 cells): reduced the N-terminally intact Aβ-peptides
total Aβ40-concentration (HEK293 cells; HEK293 cells): did not influence the total Aβ40-concentration significantly
total Aβ lowering (LNZ-308 cells): only marginal efficacy

COc1ccc(NC(=S)NCCCn2ccnc2)cc1OC.Cl [1-(3-(1H-imidazol-1-yl)propyl)-3-(3,4-dimethoxyphenyl)thiourea hydrochloride]
pGlu-Aβ concentration in medium ([2]; HEK293 and β-TC3 settings): significantly reduced
total Aβ concentration in medium ([2]; indicator of cell viability): not reduced
chemotaxis of THP-1 cells towards MCP-1 (WT) supernatant (THP-1 monocytes; 10 μM inhibitor, dilutions 1:3 and 1:10): significantly lower chemotaxis
level of MCP-1 (WT) in supernatant [3]: not significantly changed
half-life (Plasma half-life): < 1 h
pGlu-Aβ immunostaining ([4]; injected prior to Aβ(3-40)): significant reduction in pGlu-Aβ immunostaining
pGlu-Aβ after injection of Aβ(1-40) ([4]; rat, in vivo): did not result in a clear reduction of pGlu-Aβ
reduction of MCP-1 expression, absolute area, intima ([5]; 2 days): 40%
reduction of MCP-1 expression, absolute area, media ([5]; 2 days): 41%
reduction of adhering monocytes ([5]; 2 days): 67%
reduction of total adhering cells ([5]; 2 days): 45%
MCP-1 expression in media or neointima ([5]; 14 days): no reduction of MCP-1 expression
area of the media ([5]; 14 days): reduced
reduction of percentage of lumen stenosis ([5]; 14 days): 40%
reduction of the area of neointima formation ([5]; 14 days): 45%
remaining lumen ([5]; 14 days): no statistically significant effect

Aβ(1-42): SEQ ID NO: 20
fibril formation [6]: Only very little fibril formation

pGlu-Aβ(3-40): N-terminally pyroglutamate-modified Aβ(3-40)
aggregation, ThT fluorescence [7]: much faster aggregation compared to the non-cyclized counterpart

CC(C)[C@H](N)C(=O)N1CCCC1 [Val-Pyrr, Val-Pyrrolidide]
DPIV-catalysed formation of [Gln^3]Aβ3-11a from [Gln^3]Aβ1-11a (DP IV (porcine kidney)): completely prevented
formation of [pGlu^3]Aβ3-11a from [Gln^3]Aβ1-11a, consecutive catalysis by DP IV and QC [8]: not formed

NC(=O)CC[C@H](N)C(=O)Nc1ccc2ccccc2c1 [H-Gln-βNA]
pKa (physchem): 7.16 ± 0.01
first-order rate constant of nonenzymatic pGlu-formation [1]: 1.2*10^−7 s^−1
